# Experimental data reported in patent US20260256811A1, “Humoral Immune Activators for the Treatment of Humoral Immunosuppressed Pathologies, Cancer and Infectious Disease and Humoral Immune Suppressors for the Treatment of Inflammatory Diseases” (Navrogen, Inc., priority 2022, published 2026).
# What was measured:
# human CD16a-158F = target: T1, human CD16a-158F (Homo sapiens, UniProt P08637); assay: ELISA: CD16a-158F-HIS binding to coated pertuzumab (PTZ); conditions: 10 μM, P<0.005
# T1 construct: made in house
# Experimental: (§1) Analysis of Compound 2 derived analogs described in Example 3 were conducted testing for enhanced CD16a FcR binding to IgG via ELISA. Briefly, 96 well plates were coated with PTZ as described above and probed with CD16a-158F-HIS in the presence of 10 μM parental Compound 2 and R5/R6 Compound analogs 22-34 to assay for those mediating enhanced CD16a-IgG binding. […] To further evaluate the impact of enhanced binding these compounds were tested for enhancing human PBMC ADCC as described above. Human breast cancer SKBR3 cells were plated in black 96-well microplates at 5,000 cell/well in R7.5 and grown overnight at 37° C. in 5% CO2. The next day 50,000 PBMCs in R1 medium were added per well in the presence of 1 or 5 μM of each compound or ethanol (EtOH) vehicle control in triplicates. Wells treated with EtOH and PTZ without PBMCs were used as a negative control. Cultures were incubated for 24 hours at 37° C. in 5% CO2 in triplicate. After incubation, target cell viability was quantified via Cell Titer-GLO (Promega) using a Varioskan plate reader. Units are shown as relative luminescent units (RLU).
# Analogs of this class may be useful for suppressing inflammatory diseases. […] The teaching here has shown that the Compound 1, 2, 3 and 4 scaffolds can be utilized to add chemical groups that can enhance their activity for CD16a stimulation. Here we provide an example of how these scaffolds can be used to develop CD16a antagonists to suppress CD16a-IgG interactions and downstream activities, including production of proinflammatory cytokines such as IFNγ. FIGS. 10 and 13 show ELISA binding assays as described in Example 1. Briefly, 96-well clear microplates were coated with 2.5 μg/mL pertuzumab (PTZ) IgG or HSA as negative control (no PTZ). Wells were then probed with human CD16a-158F-HIS with or without compounds to monitor CD16a-PTZ binding. […] These scaffolds embody a primary inventive step that is taught within this application.
# SKBR3 cells = assay: ADCC killing of SKBR3 cells via pertuzumab with human PBMCs; assay type: cell-based; conditions: 1 or 5 μM, PTZ, 24 hours, P<0.0000075 over Compound 2
# Experimental: as §1
# [1] = Metabolic stability in mouse liver microsomes; assay type: in vitro ADME; conditions: mouse, microsomes
# Experimental: (§2) We next tested Compounds 2, 26, 27 and 33 for metabolic stability using human and mouse microsomes. For each test compound, samples were diluted a final concentration of 2 μg/mL in 25 mM potassium phosphate buffer with liver microsomes of each species at a final concentration of 0.5 mg/mL. The enzyme reaction was initiated by the addition of NADPH reagent at a final concentration of 1 mM. For negative control samples, NADPH reagent was not added. Samples were incubated at 37° C. on a 50-RPM orbital shaker, and an aliquot was removed at pre-determined timepoints at 0, 5, 10, 15, 30, and 60 minutes. Samples were then precipitated with three volume of acetonitrile containing propranolol as an internal standard, and centrifuged for 10 min at 2000 g then analyzed by LC/MS/MS. Note that compounds undergo only Phase I metabolism in liver microsomes in the presence of NADPH cofactors. Data interpretation of results are based on percent parent compound remaining relative to 0-minute incubation samples, from which the elimination half-life is calculated based on the natural log of % compound remaining vs. time plot. The following parameters were calculated to estimate the compound's in vitro metabolic stability: Cmp=concentration of microsomal proteins (mg/mL); t1/2=the half-life (min), where t1/2 is equal to 0.693/slope; CLint=the intrinsic hepatic clearance (μL/min/mg), where CLint is equal to 0.693/(t1/2×Cmp).
# [2] = Metabolic stability in human liver microsomes; assay type: in vitro ADME; conditions: human, microsomes
# Experimental: as §2
# in vivo = conditions: mouse, po, 100 mg/kg
# Experimental: To further determine the pharmacologic properties of Compound 27, we tested for its oral bioavailability and ability to activate NK cells systemically in mice as determined measuring NK cell activation markers IFNγ and TNFα. For oral bioavailability, mice were fed a standard laboratory rodent diet and housed in individual cages on a 12-hour light and 12-hour dark cycle with at […] and relative humidity at 50±20%. Animals are fasted overnight before dosing, with food returned after 6 hours at which time blood samples are obtained. Water is provided ad libitum throughout the study. Compound 27 was prepared by grinding its precipitated powder into fine particles and suspended in 0.5% hydroxypropyl methylcellulose (HPMC) in water. Three animals were dosed via gavage needle for oral administration at 100 mg/kg (10 mL/kg). Blood samples (25-30 μL per sample) were taken via the saphenous vein at 5, 15, 30 minutes, and 1, 2, 4, 6, 8, 24 hours after administration. Additional blood samples (150-200 μL per sample) were taken at 24 hours for cytokine analysis. Blood samples were collected in Greiner MiniCollect K2EDTA tubes, placed on ice, and within 30 minutes, centrifuged at 15,000 g for 5 min to obtain plasma samples with additional 50-100 μLs of each plasma sample collected at 24 hours. All plasma samples were stored at −70° C. until analysis.
# Bioanalysis of plasma samples were conducted as follows. Plasma samples were prepared using three volumes of acetonitrile containing internal standard to one volume of plasma to precipitate proteins. Samples were centrifuged at 3000 g for 10 minutes and supernatant removed for analysis by LC-MS/MS. Calibration standards and quality controls were made by preparation of a 1 mg/mL stock solution and subsequently a series of working solutions in methanol:water (1:1, v/v), which were spiked into blank plasma to yield a series of calibration standard samples ranging from 1 ng/ml to 10 μg/mL and quality control samples at three concentration levels (low, middle and high). All incurred plasma samples were treated identically to the calibration standards and quality control samples. LC-MS/MS analysis was performed utilizing multiple reaction monitoring for detection of characteristic ions for each drug candidate, additional related analytes and internal standard. Plasma concentrations are measured as described above to determine a concentration vs. time profile. The area under the plasma concentration vs time curve (AUC) is calculated using the linear trapezoidal method, known by those skilled in the art. Fitting of the data to obtain pharmacokinetic (PK) parameters was carried out using non-compartmental analysis.
# Key PK parameters reported following extravascular administration are as follows: terminal half-life t1/2, maximum plasma concentration Cmax, time to reach maximum plasma concentration tmax, area under the plasma concentration vs. time curve AUC, mean residence time MRT, and bioavailability F. All parameters are expressed for individual animals as well as mean, standard deviation, and coefficient of variation and are commonly known by those skilled in the art.
# NK cells = assay: Tolerability and NK cell activation markers after repeated oral dosing in mice; assay type: in vivo, mouse
# Experimental: To determine the tolerability and ability to systemically activate NK cells in mice, we tested orally administered Compound 27 to mice. Six mice were randomized into treatment groups vehicle control (water) and 100 mg/kg Compound 27 all suspended in 0.5% hydroxypropyl methylcellulose. Mice were dosed orally on days 1-5, 7, 9, 11, 13, 15 and sacrificed on day 16 at which time plasma was collected. Tolerability was based on Day 1 bodyweight of each mouse. The maximum tolerated dose is determined as weight loss exceeding 20% or >10% of animals in a group die.
# To confirm that oral administration of Compound 27 activated NK cells, the NK activation markers IFNγ and TNFα were measured from day 16 harvested plasma via ELISA using methods described in Example 1. […] These scaffolds embody a primary inventive step that is taught within this application.
# CD16a-158F FcR = target: T2, CD16a-158F FcR (Homo sapiens, UniProt P08637); assay: Jurkat-CD16a-158F-luciferase (JKT-CD16a) reporter bioassay; assay type: cell-based
# T2 construct: host or cells: Jurkat (JKT-CD16a luciferase reporter line)
# CD16a FcR [3] = assay: Cytokine ELISA on culture media of JKT-CD16a and parental Jurkat cells; assay type: cell-based, human; conditions: 10 μM, 18 hours, ELISA of supernatant
# [4] = system: SKBR3, OE19 or OV-CD20 target cells; assay: ADCC by human PBMC and NK effector cells against tumor target cells; assay type: cell-based; conditions: 25 or 50 μM plus 2.5 μg/mL trastuzumab or rituximab, 24 hours; vs antibody alone (vehicle)
# Experimental: (§3) Briefly, 5,000 human breast carcinoma (SKBR3 or OE19) or OV-CD20 target cells were plated in black 96-well microplates in R7.5 media for 48 hours. Wells were washed and 50,000 PBMC, NK or SPL effector cells were added in R1 assay media with or without a targeting test antibody and 25 or 50 μM of Compound 2. Vehicle is the solvent that Compound 2 is dissolved in. For assays employing SKBR3 human breast cancer or OE19 esophageal adenocarcinoma cell lines, 2.5 μg/mL of the HER2-targeting trastuzumab test antibody was used for ADCC assays. For OV-CD20 assays, 2.5 μg/mL of the CD20-targeting rituximab test antibody was used for ADCC assays. Cultures were incubated for 24 hours at 37° C. in 5% CO2 in triplicate. After incubation, culture supernatants were harvested for cytokine analysis and wells were washed with phosphate buffered saline and adhered target cell viability was quantified via Cell Titer-GLO (Promega) using a Varioskan plate reader. […] ADCC data was graphed as percent killing of antibody treated with Compound 2 or vehicle vs. cultures not treated with antibody. […] AICC results were graphed as percent killing by Compound 2 vs vehicle only treated cultures. […] Experiments represent a minimum of triplicate wells.
# tumor target cells = assay: ADCC and cytokine production by mouse splenocyte (SPL) effector cells; assay type: cell-based; conditions: 25 or 50 μM plus targeting antibody, 24 hours; vs antibody alone (vehicle)
# Experimental: as §3
# OV-CD20 tumor cells = assay: AICC by human primary NK cells; assay type: cell-based; conditions: absence of antibody, vs vehicle
# Experimental: as §3
# CD16a FcR [5] = assay: Cytokine and granzyme ELISA on supernatants of primary human effector cells; assay type: cell-based
# Experimental: as §3
# [6] = Tolerability and serum TNFα in athymic nude mice, i.v. dosing; assay type: in vivo
# Experimental: To determine the ability of Compound 2 to activate immune-effector cells in vivo, we administered 7 mg/kg of Compound 2 or similar volumes of vehicle (ethanol) daily for 5 days (day 1-5) and isolated total serum on day 11 to measure for immune-effector cell activation markers. […] Experiments represent a minimum of triplicate wells.
# SARS-COV-2 virus = assay: Viability of human PBMCs exposed to SARS-COV-2 virus; assay type: cell-based; conditions: Severe acute respiratory syndrome coronavirus 2, PBMC, 72 h, read-out: PBMC viability after SARS-COV-2 exposure
# From the text: NK cells have been previously reported to be capable of killing virally infected cells (Bjorkstrom N K, et al. Nat Reviews Immunol 22:112-123, 2022). In particular, previous studies have shown that the SARS-COV-2 virus can infect human PBMCs and this infection can be lethal to overall PBMC survival (Manunta MDI, et al. Scientific Reports 11:4904-4916, 2021). To test the ability of CD16a FcR activating small molecular weight agents described here to activate effector cells within PBMCs that in turn can kill virally infected PBMC sib cells and reduce viral load, Compound 2 was tested against human PBMCs exposed to SARS-COV-2 virus. Briefly, IL2-activated PBMCs grown in RPMI media with 10% heat inactivated FBS (R10) were plated at 100,000 cells/well in 96 well U-bottom microplates. Next, […] viral titers (previously determined by plaque forming units, PFU) were added to appropriate wells with or without 25 μM of Compound 2. Cultures were incubated for 72 hours at 37° C. in 5% CO2. Plates were centrifuged and supernatants collected for future cytokine and viral titer analysis. Cells were resuspended in RPMI plus 10% FBS, transferred to 96-well black microplates and tested for viability using Cell Titer-Glo (Promega) and read for viability on a 96-well microplate reader. […] Experiments represent a minimum of triplicate wells.
# T2 sequence (P08637 17-254): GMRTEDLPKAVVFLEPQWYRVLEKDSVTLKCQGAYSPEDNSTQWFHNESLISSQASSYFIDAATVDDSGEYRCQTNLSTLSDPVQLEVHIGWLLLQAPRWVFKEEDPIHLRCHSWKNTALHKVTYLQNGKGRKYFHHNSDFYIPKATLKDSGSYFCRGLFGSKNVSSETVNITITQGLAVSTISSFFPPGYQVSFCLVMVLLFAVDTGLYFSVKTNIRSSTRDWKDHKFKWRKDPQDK
# T2 sequence (P20963 22-164 partner): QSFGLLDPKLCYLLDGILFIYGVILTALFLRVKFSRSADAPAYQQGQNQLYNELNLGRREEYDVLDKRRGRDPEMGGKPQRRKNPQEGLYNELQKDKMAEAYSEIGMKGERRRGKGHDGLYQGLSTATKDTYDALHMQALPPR
# T1 sequence (P08637 with tags, fused parts or gaps): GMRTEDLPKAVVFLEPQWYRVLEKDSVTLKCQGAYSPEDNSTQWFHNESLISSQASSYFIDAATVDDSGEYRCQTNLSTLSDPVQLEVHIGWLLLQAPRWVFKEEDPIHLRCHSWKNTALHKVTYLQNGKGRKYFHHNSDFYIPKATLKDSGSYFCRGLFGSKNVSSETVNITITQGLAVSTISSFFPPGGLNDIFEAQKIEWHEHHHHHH
compound,measurement,setting,value
C[C@H](CCCN1CCCCC1)[C@H]1CC[C@@]2(C)C3CC[C@H]4C(C)(C)[C@@H](O)CC[C@@]45C[C@@]35CC[C@]12C (stereo partly shown) [Compound 27],enhancement of CD16a-158F binding to IgG (PTZ),human CD16a-158F,significantly enhanced
same,enhancement of ADCC killing of SKBR3 cells,SKBR3 cells,enhanced ADCC most significantly
same,half-life at 2 μg/mL,[1],10.2 h
same,microsomal CLint at 2 μg/mL,[1],2.27 µL/min/mg
same,half-life at 2 μg/mL,[2],11.7 h
same,microsomal CLint at 2 μg/mL,[2],1.98 µL/min/mg
same,AUC(0-t),in vivo,7750 ng·h/mL
same,Cmax,in vivo,511 ng/mL
same,Tmax,in vivo,≤ 6 h
same,bioavailability,in vivo,11.7%
same,concentration at 24 hours,in vivo,242 ng/mL
same,half-life,in vivo,18.3 h
same,"tolerability of multiple oral dosing (health, body weight)","NK cells; 100 mg/kg oral on days 1-5, 7, 9, 11, 13, 15",well tolerated
same,plasma NK cell activation markers IFNγ and TNFα,"NK cells; 100 mg/kg oral, day 16 plasma, ELISA, vs vehicle, P<0.0056",upregulated
CC(C)=CCC[C@@H](C)[C@H]1CC[C@@]2(C)C3CC[C@H]4C(C)(C)[C@@H](O)CC[C@@]45C[C@@]35CC[C@]12C (stereo partly shown) [Compound 2],JKT-CD16a activation (luciferase RLU) in the presence of IgG,"CD16a-158F FcR; OV-CD20 target cells plus 2.5 μg/mL rituximab, 12-18 hours, vs vehicle or no compound",significant enhancement
same,JKT-CD16a-158F FcR activation (luciferase RLU) in the absence of IgG antibody,"CD16a-158F FcR; OV-CD20 target cells without antibody, lower levels than with IgG",stimulated
same,IFNγ and TNFα production by JKT-CD16a-158F cells,CD16a FcR [3],both cytokines were produced
same,IFNγ and TNFα production by parental Jurkat cells (CD16a-null),CD16a FcR [3],little to no cytokine production
same,human (PBMC and NK cells) effector cell killing of target cells through ADCC,[4],enhance
same,mouse (SPL cells) effector cell killing of target cells through ADCC,tumor target cells,enhance
same,NK cell killing of OV-CD20 tumor cells via AICC,OV-CD20 tumor cells,enabled NK cell killing of OV-CD20 tumor cells
same,"TNFα, IFNγ, GM-CSF and granzyme B production by NK cells","CD16a FcR [5]; absence of antibody, ELISA of supernatants",produced and secreted
same,time of exposure to activation and cytokine production,CD16a FcR [5]; time course analysis,≤ 30 min
same,serum TNFα,"[6]; 7 mg/kg i.v. daily day 1-5, serum on day 11, ELISA, vehicle cohort 11 μg/mL",298 µg/mL
same,tolerability by lack of body weight loss,"[6]; 7 mg/kg i.v. daily for 5 days, athymic nude mice",well tolerated
same,"tolerable dose, daily i.v. dosing",[6]; athymic nude mice,at least 7 mg/kg
same,viability at 25 µM,SARS-COV-2 virus,100%
same,half-life at 2 μg/mL,[1],1.88 h
same,microsomal CLint at 2 μg/mL,[1],12.3 µL/min/mg
same,half-life at 2 μg/mL,[2],1.18 h
same,microsomal CLint at 2 μg/mL,[2],19.7 µL/min/mg
